The subject of series [1] is Pain of Inflammation on the Back Paw of the Rat. In words: Activity against the pain of inflammation on the back paw of the rat (RANDALL-SELITTO). The format is in vivo, rat (male Chbb:THOM-rats). To be noted: po, 1.5 h, dose at which pain threshold rises by 50% vs controls, esophageal tube, 1% methyl cellulose, 90 minutes after phlogistic, 90 minutes before determination, linear regression. On the procedure: (§1) were tested with regard to analgesic activity in the rat, analgesic activity in the mouse, and acute toxicity in the mouse:
1. Activity against the Pain of Inflammation on the Back Paw of the Rat
The activity against the pain caused by inflammation was tested according to the method of RANDALL-SELITTO [Arch. Int. Pharmacodyn., 111, 409 (1957)]. Male Chbb:THOM-rats having body weights of from 100 to 130 grams received a subplantar injection of 0.1 ml of a suspension of 1,12 g of dry yeast in 18.9 ml of a 5.5% glucose solution into a back paw.
At 90 minutes after injection of the phlogistic, that is, ninety minutes before determination of the pain threshold, the animals received various doses of the test substances as a trituration in 1% methyl cellulose (1 ml/100 gm of animal) through an esophageal tube. Control animals received corresponding volumes of the vehicle. The pain threshold was determined in the rat in terms of the grams of bearing pressure on a paw, based on the weight of the animal.
From the pain threshold, measured according to the various doses of the test substance, and with linear regression analysis according to LINDER [Statistische Methoden, 4th ed., pp. 148-162, Birkhauser, Basel, 1964] an ED50 was determined. The ED50 dose is one in which the pain threshold rises by 50%, as compared to the controls.

Series [2] deals with Sensitivity of the Mouse in the Hot Plate Test. The experiment in a line: Activity against the sensitivity of the mouse in the hot plate test (CHEN and BECKMAN). To be noted: po, dose increasing time of reaction by 100%, hot plate 52° C., esophageal tube, 1% methyl cellulose, linear regression. The format is in vivo, mouse (male Chbb:NMRI (SPF)-mice). How it is done: as §1
2. Activity against the Sensitivity of the Mouse in the Hot Plate Test
The test was performed according to the method described by CHEN and BECKMAN [Science, 113, 631 (1951)] in male Chbb:NMRI (SPF)-mice with an average weight of 20 grams.
The test substances were administered as trituration in 1% methyl cellulose (0.1 ml/10 gm of mouse) by means of an esophageal tube. Before treatment with the test substances, the animals were twice put on the hot plate at intervals of 30 to 120 minutes, whereby their individual times of reaction were measured. After treatment with a test substance, the times of reaction of the animals were again measured in intervals of 30 to 120 minutes.
From the average maximum increase of the time of reaction obtained after treatment with different doses, and after linear regression analysis according to LINDER, an ED100 dose was calculated. The ED100 dose is one which increased the time of reaction by 100%.
Background: In hot-plate and tail-flick tests a longer latency is read as antinociception.

The nature of series [3]: Acute toxicity in mice. Conditions: in vivo, po; mouse, esophageal tube, 1% methyl cellulose; deaths within 14 days; LITCHFIELD and WILCOXON
It is filed as in vivo. How it is done:
as §1
(§2) 3. Acute Toxicity in Mice
(§3) The acute toxicity was determined in Chbb:NMRI (SPF)-mice of both sexes, having an average body weight of 20 grams. The test compounds were administered as a trituration in 1% methyl cellulose (0.2 ml/10 gm of animal) by means of an esophageal tube. The calculation of the LD50 values was effected according to the method of LITCHFIELD and WILCOXON [J. Pharmacol. Exp. Ther., 96, 99 (1949)], based upon the percentage of animals which died within 14 days after administration of different doses.

Series [4] has as its system Chbb:NMRI (SPF)-mice. In words: Acute toxicity in mice. It is filed as in vivo. To be noted: dose 1000 mg/kg (footnote * of Table 3), mouse, esophageal tube, within 14 days. On the procedure:
as §1, §2, §3

In the case of `Cc1nn(C)c2c1Nc1ncccc1NC2=O` [A, 1,3-dimethyl-1,4,9,10-tetrahydro-pyrazolo[4,3-e]pyrido[3,2-b][1,4]diazepin-10-one], in series [1], the 50% effect level (ED50) was put at a dose of 26 mg/kg. In series [2], this compound had an ED100 of 15 mg/kg. Also, the LD50 – broadly, the dose at which mortality reaches 50% – at 336 h in series [3] turned out to be 152 mg/kg.
The like results for `Cc1nn(C)c2c1Nc1ncccc1N(C)C2=O` [B, 1,4,9,10-tetrahydro-1,3,9-trimethyl-pyrazolo[4,3-e]pyrido[3,2-b][1,4]diazepin-10-one] were, in that order, 11 mg/kg, 30 mg/kg and 175 mg/kg.
The like results for `CCN1C(=O)c2c(c(C)nn2C)Nc2ncccc21` [C, 1,3-dimethyl-9-ethyl-1,4,9,10-tetrahydro-pyrazolo[4,3-e]pyrido[3,2-b][1,4]diazepin-10-one] were, in that order, 28 mg/kg, 28 mg/kg and 171 mg/kg.
On to `Cc1nn(C)c2c1N(C)c1ncccc1N(C)C2=O` [D, 1,4,9,10-tetrahydro-1,3,4,9-tetramethyl-pyrazolo[4,3-e]pyrido[3,2-b][1,4]diazepin-10-one], for which, in series [1], the 50% effect level (ED50) was put at a dose of 7.4 mg/kg. In series [3], this compound showed an LD50 at 336 h of 225 mg/kg.
Taken in the same sequence, the figures for `CCN1C(=O)c2c(c(C)nn2C)N(C)c2ncccc21` [E, 9-ethyl-1,4,9,10-tetrahydro-1,3,4-trimethyl-pyrazolo[4,3-e]pyrido[3,2-b][1,4]diazepin-10-one] were 5.9 mg/kg and 202 mg/kg.
`CCCCN1C(=O)c2c(c(C)nn2C)Nc2ncccc21` [F, 9-(n-butyl)-1,3-dimethyl-1,4,9,10-tetrahydro-pyrazolo[4,3-e]pyrido[3,2-b][1,4]diazepin-10-one]: in series [1], the 50% effect level (ED50) was put at a dose of 139 mg/kg. Further, the ED100 in series [2] came to 87 mg/kg. The compound further gave an LD50 at 336 h in series [3] greater than 1000 mg/kg. In addition, the “animals died after administration of this dose” value in series [4] is 1 out of 8.

For the origin of these results see US4381303A, “1,4,9,10-Tetrahydro-pyrazolo [4,3-]pyrido[-3,2-b][1,4]diazepin-10-ones” (Dr. Karl Thomae GmbH, priority 1981, dated 1983).
